# Test results from US20230250292A1, “AROMATIC HYDROCARBON-SOLUBLE ANTHRAQUINONE” (Dow Global Technologies LLC, priority 2020, published 2023).
# How the values were obtained:
# [1] = Storage stability in Aromatic 200 solvent at -10° C.; format: physicochemical; settings: -10° C. freezer
# Protocol: Storage stability experiments of Examples 1-3 as well as Comparative Examples 4 and 5 as well as Comparative Example 6 (a 50:50 molar physical blend of Comparative Examples 4 and 5) are conducted as follows. For each Example, a calibration line is generated by preparing 0.5 and 1.7 wt% solutions of each Example using a batch of Aromatic 200 supplied from TOTAL, identified as ATOSOL 200ND, and measuring the UV/vis absorbance at these known concentrations. The solutions are heated to 60° C. with stirring overnight and allowed to cool to ambient temperature for at least several hours, preferably overnight. For the 0.5 and 1.7 wt% solutions for each marker, UV/vis measurements are prepared by diluting an aliquot of each solution (exact weight recorded) into a known amount of xylenes to target an absorbance value below approximately 2.5. […] For other Examples, several drops of the targeted 10 wt% solution are filtered and a known amount of the filtrate is diluted with a known amount of xylenes to target an absorbance value below approximately 2.5. The initial concentration is determined by measuring the absorbance value of a known concentration of the filtered and diluted aliquot taken from the targeted 10 wt% solution. The expected UV/vis absorbance value of the aliquot is calculated based on the calibration standards, and this value is compared against the actual measured absorbance value. […]
# [2] = Maximum (initial) soluble concentration in Aromatic 200 solvent by UV/vis; format: physicochemical; settings: for Measured Initial Concentration: Aromatic 200 (ATOSOL 200ND), targeted 10 wt% solution, filtered, diluted in xylenes, UV/vis against 0.5 and 1.7 wt% calibration
"Storage stability: Concentration after storage at -10° C., 4 days [1] [wt%]",Structure (SMILES),Measured Initial Concentration [2],"Solubility of calibration solution in Aromatic 200 (solids observed) ([2]; 1.7 wt% solution in Aromatic 200, heated to 60° C. overnight, cooled to ambient)"
4.2,"CCCCc1ccc(Nc2ccc(Nc3ccc(CCCC)cc3)c3c2C(=O)c2c(Nc4ccc(CCCC)cc4)ccc(Nc4ccc(CCCC)cc4)c2C3=O)cc1 [Comparative Example 4, 1,4,5,8-tetrakis(4-(n-butyl)phenylamino)anthracene-9,10-dione]",7.0 wt%,–
–,"Cc1ccc(Nc2ccc(Nc3ccc(C)cc3)c3c2C(=O)c2c(Nc4ccc(C)cc4)ccc(Nc4ccc(C)cc4)c2C3=O)cc1 [Comparative Example 5, 1,4,5,8-tetrakis(4-methylaniline)anthracene-9,10-dione]","Solids observed at 1.7%, no measurement",solids are observed at 1.7 wt%
